# Measured values reported in patent US11028086B2, “Pyrido-imidazo rifamycins” (Biofer S.p.A., priority 2017, dated 2021).
# Values joined by “and” are separate entries in the source; they are usually repeats but may differ in a detail not shown here. Identical values can stand only once. Like-named read-outs stand apart in the source and are kept apart here.
# Experiments:
# Escherichia Coli NK12 = experiment: MIC by serial dilution, Strain D; assay type: cell-based; conditions: COLINK12, range between last concentration with growth and first without growth
# Method: (§1) The MICs were calculated using the serial dilution method, and are expressed as the range between the last concentration at which the bacterial strain grows and the first concentration at which the strain tested no longer grows.
# [1] = cited from earlier work
# [2] = tested on: Staphylococcus aureus IM149; experiment: MIC by serial dilution, Strain A; assay type: cell-based; conditions: range between last concentration with growth and first without growth
# Method: as §1
# [3] = tested on: Escherichia Coli ATCC 25922; experiment: MIC by serial dilution, Strain C; assay type: cell-based; conditions: ATCC25922, range between last concentration with growth and first without growth
# Method: as §1
# [4] = Pharmacokinetics after intravenous administration in male rats; conditions: Sprague-Dawley, rat, in vivo, 1 mg/kg
# Method: (§2) To 0.250 mL of this solution, 4.750 mL of saline are added, obtaining a final 0.2 mg/mL (5% DMSO, 95% saline) solution. A volume of 5 mL/Kg is administered to 3 rats in each group to have a 1 mg/Kg dose for each of the two products. • Oral Administration of RFX and Derivative 3: the two products were dissolved in DMSO obtaining two solutions having a 60 mg/mL concentration (stock solutions). To 0.5 mL of each solution, 2.0 mL of PEG 400 and 7.5 mL of saline solution were added under stirring, obtaining a stable suspension with a nominal concentration of 3 mg/mL. A volume equal to a 30 mg/kg dose is administered to the animal.
# (§3) Male Sprague Dawley rats, weighing between 250 and 300 g, were used in the study. The animals were housed and observed before the experiment according to an approved GMP protocol according to Italian legislation.
# (§4) The rats were divided into three groups: • Group 1: i.v. treatment • Group 2: oral treatment for blood sampling • Group 3: oral treatment for urine and stool collection
# (§5) Plasma: the calibration curve and the QC samples were prepared in untreated rat plasma, adding 5 μL of each stock solution to 45 μL of untreated rat plasma. The 50 μL of plasma obtained were diluted up to 100 μL with cold acetonitrile containing the Internal Standard (I.S.) at the final concentration of 50 ng/mL, and centrifuged for 5 min. at 9000 rpm at 5° C. The supernatant was transferred to a 96-well plate for analysis. The samples of Groups 1 and 2 were similarly prepared using 50 μL of plasma from the treated rats.
# (§6) A non-compartmental analysis was applied, and the following pharmacokinetic parameters were considered for each subject:
# (§7) The concentration data were extrapolated using the Analyst™ 6.1 software (Applied Biosystems); the AUCs were calculated using a linear-trapezoidal method, and a weight uniformity was performed as the first approach. The concentration/time graphs were performed after logarithmic transformation of the results using PK Solver 2.0 software, Excel 2007 Microsoft add in.
# Enterococcus = experiment: qPCR count of intestinal bacteria in rat stool after 5 days oral treatment; assay type: in vivo, Sprague Dawley rats; conditions: for cell count average value Enterococcus: group average of cell counts; for Ct Values Eterococcus / Cell Count Eterococcus: individual rats, listed as RFX; for Ct Values Eterococcus: average of three qPCR analyses; for Cell Count Eterococcus: derived from Ct values
# Method: (§8) The stools were collected at T0 and the day after the last treatment.
# (§9) The two products were first dissolved in DMSO at the concentration of 100 mg/mL (stock solution), then to 0.5 mL of each solution 2.0 mL of PEG 400 and 7.5 mL of saline solution were added, under stirring. A stable suspension at the nominal concentration of 5 mg/mL is obtained. A volume of 10 mL/kg, equal to 50 mg/kg, is administered.
# (§10) The detection method is based on isolation of the total genomic DNA from each stool sample, using a specific commercial kit. After the quali-quantitative evaluation of the DNA, the same DNA samples were stored at −20° C. Quantitative analyzes were performed using qPCR Real Time with the use of a DNA primer couples specific for Bifidobacterium, Enterococcus, Enterobacter, and Lactobacillus species.
# (§11) DNA isolation was performed using the PowerFecal® DNA Isolation Kit (MO BIO Laboratories) commercial kit on a sample of 250 mg stool, each time. After isolation, the DNA samples were evaluated by spectrophotometric analysis. Each DNA sample was quantified in the 60-100 ng/μL range (high in proteins and sugars), as typical for stool-derived DNA.
# (§12) Each sample was evaluated three times. For each DNA sample and for each specific DNA primer couple, the analysis provided a CT value that resulted to be correlated to the amount of DNA specific to the bacterial species, therefore closely correlated to the number of bacterial cells of that species present in the stool sample.
# (§13) For relative quantification, a “generalized linear mixed model (GLMM) under Poisson-lognormal error” was applied. MCMC.qPCR R package was used to convert CT values into bacterial cell numbers. For the conversion, the formula: Number of cells=E(Ct1−Ct) was used, where E represents the efficiency of amplification, which in the present case assumes the value of 2. Ct1 represents the number of qPCR cycles needed to detect a single target molecule (in this study Ct1 is supposed to have the value of 39).
# (§14) The Markov Chain Monte Carlo algorithm (MCMC) was used to estimate the effect of time on the development levels of each microbial genus. The GLMM method was used to verify if the levels of each bacterial genus at T0 and T5 differ. Furthermore, a statistical analysis to evaluate the significance of the differences between the T0 and T5 values was performed.
# Lactobacillus = experiment: as above; assay type: in vivo, Sprague Dawley rats; conditions: for cell count average value Lactobacillus: group average of cell counts; for Ct Values Lactobacillus / Cell Count Lactobacillus: individual rats, listed as RFX; for Ct Values Lactobacillus: average of three qPCR analyses; for Cell Count Lactobacillus: derived from Ct values
# Method: as §8, §9, §10, §11, §12, §13, §14
# Bifidobacterium = experiment: as above; assay type: in vivo, Sprague Dawley rats; conditions: for cell count average value Bifidobacterium: group average of cell counts; for Ct Values Bifidobacterium / Cell Count Bifidobacterium: individual rats, listed as RFX; for Ct Values Bifidobacterium: average of three qPCR analyses; for Cell Count Bifidobacterium: derived from Ct values
# Method: as §8, §9, §10, §11, §12, §13, §14
# Enterobacter = experiment: as above; assay type: in vivo, Sprague Dawley rats; conditions: for cell count average value Enterobacter: group average of cell counts; for Ct Values Enterobacter / Cell Count Enterobacter: individual rats, listed as RFX; for Ct Values Enterobacter: average of three qPCR analyses; for Cell Count Enterobacter: derived from Ct values
# Method: as §8, §9, §10, §11, §12, §13, §14
# [5] = tested on: Bacillus Subtilis ATCC 6633; experiment: MIC by serial dilution, Strain B; assay type: cell-based; conditions: ATCC6633, range between last concentration with growth and first without growth
# Method: as §1
# [6] = Pharmacokinetics after oral administration in male rats; conditions: Sprague-Dawley, rat, in vivo
# Method: as §2, §3, §4, §5, §6, §7
# [7] = T5 (day after 5 days oral 50 mg/kg)
# [8] = T5 (day after 5 days oral 50 mg/kg), 50 mg/kg
# [9] = oral treatment 5 days, 50 mg/kg, T5 vs T0
structure (smiles),measurement,setting,value
"CO[C@H]1/C=C/O[C@@]2(C)Oc3c(C)c(O)c4c(O)c(c5c(nc6cc(C)ccn65)c4c3C2=O)NC(=O)/C(C)=C\C=C\[C@H](C)[C@H](O)[C@@H](C)[C@@H](O)[C@@H](C)[C@H](OC(C)=O)[C@@H]1C [Rifaximin, reference compound]",MIC,Escherichia Coli NK12,4 to 8 µg/mL
same,solubility,[1]; in the presence of 20 mM bile acids,72.6%
same,solubility,[1]; in water,0.6%
same,MIC,[2],0.25 to 0.5 µg/mL
same,MIC,[3],2 to 4 µg/mL
same,AUC(0-inf),[4],1990 ng·h/mL
same,AUC(0-t),[4],1990 ng·h/mL
same,C0,[4],3760 ng/mL
same,Cl_obs,[4],9.8 mL/min/kg
same,Cmax,[4],2880 ng/mL
same,MRT inf,[4],1.18 h
same,Tmax,[4],5 min
same,Vss_obs,[4],0.757 L/kg
same,half-life,[4],2.45 h
same,cell count average value Enterococcus,Enterococcus; T0 (before treatment),9.2 × 10^6
same,Ct Values Eterococcus,Enterococcus; T0 (before treatment),23.236 and 22.741 and 14.976 and 16.124 and 18.925 and 14.203
same,Cell Count Eterococcus,Enterococcus; T0 (before treatment),5.56E+04 cells per mg of stool and 7.84E+04 cells per mg of stool and 1.71E+07 cells per mg of stool and 7.70E+06 cells per mg of stool and 1.10E+06 cells per mg of stool and 2.91E+07 cells per mg of stool
same,cell count average value Enterococcus,Enterococcus; [7],28 × 10^4
same,Ct Values Eterococcus,Enterococcus; [8],23.676 and 24.09 and 24.608 and 23.121 and 25.293 and 26.739
same,Cell Count Eterococcus,Enterococcus; [8],4.10E+04 cells per mg of stool and 3.06E+04 cells per mg of stool and .15E+04 cells per mg of stool and 6.03E+04 cells per mg of stool and 1.34E+04 cells per mg of stool and 4.91E+03 cells per mg of stool
same,drop in cell count for the Enterococcus genus,Enterococcus; [9],about 100 times
same,cell count average value Lactobacillus,Lactobacillus; T0 (before treatment),1.3 × 10^6
same,Ct Values Lactobacillus,Lactobacillus; T0 (before treatment),20.565 and 20.928 and 19.111 and 20.465 and 17.200 and 17.852
same,Cell Count Lactobacillus,Lactobacillus; T0 (before treatment),3.55E+05 cells per mg of stool and 2.75E+05 cells per mg of stool and 9.71E+05 cells per mg of stool and 3.80E+05 cells per mg of stool and 3.65E+06 cells per mg of stool and 2.32E+06 cells per mg of stool
same,cell count average value Lactobacillus,Lactobacillus; [7],6.6 × 10^5
same,Ct Values Lactobacillus,Lactobacillus; [8],20.364 and 19.891 and 18.746 and 19.308 and 19.872 and 20.306
same,Cell Count Lactobacillus,Lactobacillus; [8],4.07E+05 cells per mg of stool and 5.65E+05 cells per mg of stool and 1.25E+06 cells per mg of stool and 8.47E+05 cells per mg of stool and 5.73E+05 cells per mg of stool and 4.24E+05 cells per mg of stool
same,change in cell count for the Lactobacillus genus,Lactobacillus; [9],no significant differences
same,cell count average value Bifidobacterium,Bifidobacterium; T0 (before treatment),6.87 × 10^6
same,Ct Values Bifidobacterium,Bifidobacterium; T0 (before treatment),15.880 and 14.080 and 22.166 and 21.412 and 24.420 and 23.158
same,Cell Count Bifidobacterium,Bifidobacterium; T0 (before treatment),9.11E+06 cells per mg of stool and 3.17E+07 cells per mg of stool and 1.17E+05 cells per mg of stool and 1.97E+05 cells per mg of stool and 2.45E+04 cells per mg of stool and 5.87E+04 cells per mg of stool
same,cell count average value Bifidobacterium,Bifidobacterium; [7],8.26 × 10^6
same,Ct Values Bifidobacterium,Bifidobacterium; [8],13.747 and 16.114 and 24.545 and 18.232 and 27.172 and 26.104
same,Cell Count Bifidobacterium,Bifidobacterium; [8],4.00E+07 cells per mg of stool and 7.75E+06 cells per mg of stool and 2.25E+04 cells per mg of stool and 1.79E+06 cells per mg of stool and 3.64E+03 cells per mg of stool and 7.62E+03 cells per mg of stool
same,decrease in the bacterial count for the Bifidobacterium genus,Bifidobacterium; [9],no significant differences
same,cell count average value Enterobacter,Enterobacter; T0 (before treatment),2.69 × 10^6
same,Ct Values Enterobacter,Enterobacter; T0 (before treatment),17.704 and 23.688 and 16.284 and 17.749 and 17.616 and 18.371
same,Cell Count Enterobacter,Enterobacter; T0 (before treatment),2.57E+06 cells per mg of stool and 4.07E+04 cells per mg of stool and 6.89E+06 cells per mg of stool and 2.50E+06 cells per mg of stool and 2.74E+06 cells per mg of stool and 1.62E+06 cells per mg of stool
same,cell count average value Enterobacter,Enterobacter; [7],5.98 × 10^5
same,Ct Values Enterobacter,Enterobacter; [8],20.143 and 25.467 and 17.828 and 21.542 and 23.096 and 20.066
same,Cell Count Enterobacter,Enterobacter; [8],4.75E+05 cells per mg of stool and 1.19E+04 cells per mg of stool and 2.36E+06 cells per mg of stool and 1.80E+05 cells per mg of stool and 6.13E+04 cells per mg of stool and 5.01E+05 cells per mg of stool
same,drop in cell count for the Enterobacter genus,Enterobacter; [9],about 10 times
same,MIC,[5],0.125 to 0.25 µg/mL
same,bioavailability,[6],0.4%
same,AUC(0-inf),"[6]; po, 30 mg/kg",222 ng·h/mL
same,AUC(0-t),"[6]; po, 30 mg/kg",197 ng·h/mL
same,Cmax,"[6]; po, 30 mg/kg",57.1 ng/mL
same,MRT inf,"[6]; po, 30 mg/kg",9.22 h
same,Tmax,"[6]; po, 30 mg/kg",0.5 h
same,half-life,"[6]; po, 30 mg/kg",9.63 h
